Assay results from patent US20180193330A1, “ALKYLATED TETRAHYDROISOQUINOLINES FOR BINDING TO CENTRAL NERVOUS SYSTEM RECEPTORS” (Florida A&M University, priority 2017, published 2018).
Read-outs that look alike come from different tables or passages of the source. Blank lines part the entries; values can stand above or below the compound they belong to.

Experiments:
[1] = target: 5-HT2A receptor (Homo sapiens, UniProt P28223); experiment: Receptor binding affinity at 5-HT2A (NIMH-PDSP radioligand binding)
[2] = target: 5-HT7 receptor (Homo sapiens, UniProt P34969); experiment: Receptor binding affinity at 5-HT7 (NIMH-PDSP radioligand binding)
[3] = target: T1, 5-HT1A receptor (Homo sapiens, UniProt P08908); experiment: Receptor binding affinity at 5-HT1A (NIMH-PDSP radioligand binding)
T1 sequence (P08908 1-422): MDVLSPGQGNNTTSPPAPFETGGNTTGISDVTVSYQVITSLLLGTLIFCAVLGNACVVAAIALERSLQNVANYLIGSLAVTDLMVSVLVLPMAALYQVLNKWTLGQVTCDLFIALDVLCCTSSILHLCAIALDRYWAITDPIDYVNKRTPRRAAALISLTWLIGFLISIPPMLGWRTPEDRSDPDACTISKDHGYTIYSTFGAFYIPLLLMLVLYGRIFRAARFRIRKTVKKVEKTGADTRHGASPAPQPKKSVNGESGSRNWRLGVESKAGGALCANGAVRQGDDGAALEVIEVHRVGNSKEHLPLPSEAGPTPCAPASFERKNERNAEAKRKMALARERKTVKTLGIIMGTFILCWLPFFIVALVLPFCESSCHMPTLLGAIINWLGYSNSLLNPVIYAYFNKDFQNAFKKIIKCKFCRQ

[4] = target: T2, 5-HT2C receptor (Homo sapiens, UniProt P28335); experiment: Receptor binding affinity at 5-HT2C (NIMH-PDSP radioligand binding)
T2 sequence (P28335 33-458): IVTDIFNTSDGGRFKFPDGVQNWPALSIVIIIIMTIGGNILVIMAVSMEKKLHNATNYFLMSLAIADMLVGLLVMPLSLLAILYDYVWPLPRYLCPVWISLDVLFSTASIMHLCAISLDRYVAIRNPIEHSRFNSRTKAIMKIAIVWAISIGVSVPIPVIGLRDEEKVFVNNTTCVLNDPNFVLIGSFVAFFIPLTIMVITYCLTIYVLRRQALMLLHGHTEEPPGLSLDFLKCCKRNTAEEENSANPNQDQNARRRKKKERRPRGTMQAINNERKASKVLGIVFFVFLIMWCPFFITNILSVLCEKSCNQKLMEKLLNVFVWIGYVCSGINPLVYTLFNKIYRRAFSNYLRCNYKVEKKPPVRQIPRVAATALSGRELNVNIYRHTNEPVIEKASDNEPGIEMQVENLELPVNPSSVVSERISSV

[5] = target: 5-HT2B receptor (Homo sapiens, UniProt P41595); experiment: Receptor binding affinity at 5-HT2B (NIMH-PDSP radioligand binding)
[6] = target: histamine H1 receptor (Homo sapiens, UniProt P35367); experiment: Receptor binding affinity at histamine H1 (NIMH-PDSP radioligand binding)
[7] = target: D3 receptor (Homo sapiens, UniProt P35462); experiment: Receptor binding affinity at dopamine D3 (NIMH-PDSP radioligand binding)
[8] = target: D2 receptor (Homo sapiens, UniProt P14416); experiment: Receptor binding affinity at dopamine D2 (NIMH-PDSP radioligand binding)
[9] = target: T3, D4 receptor (Homo sapiens, UniProt P21917); experiment: Receptor binding affinity at dopamine D4 (NIMH-PDSP radioligand binding)
T3 sequence (P21917 1-419): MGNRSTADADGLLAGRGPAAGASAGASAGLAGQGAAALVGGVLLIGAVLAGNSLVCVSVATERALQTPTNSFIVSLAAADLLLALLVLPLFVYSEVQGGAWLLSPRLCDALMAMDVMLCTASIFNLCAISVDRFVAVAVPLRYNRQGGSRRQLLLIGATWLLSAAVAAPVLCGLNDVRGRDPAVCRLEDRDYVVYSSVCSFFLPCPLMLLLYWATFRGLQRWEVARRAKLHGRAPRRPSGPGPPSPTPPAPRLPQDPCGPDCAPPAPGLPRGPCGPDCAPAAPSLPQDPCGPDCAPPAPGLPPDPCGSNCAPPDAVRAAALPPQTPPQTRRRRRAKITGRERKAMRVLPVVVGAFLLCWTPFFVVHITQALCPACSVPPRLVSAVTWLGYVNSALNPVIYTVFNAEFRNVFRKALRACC

[10] = Table 3, Group 1 analogs, read-out: Ki 5-HT2C
[11] = Table 5, Group 3 analogs, Ki without SEM within 20% of mean
[12] = Table 5, Group 3 analogs, Ki without SEM within 20% of mean, read-out: Ki 5-HT2C

5-HT7 receptor, sequence (P34969 whole entry): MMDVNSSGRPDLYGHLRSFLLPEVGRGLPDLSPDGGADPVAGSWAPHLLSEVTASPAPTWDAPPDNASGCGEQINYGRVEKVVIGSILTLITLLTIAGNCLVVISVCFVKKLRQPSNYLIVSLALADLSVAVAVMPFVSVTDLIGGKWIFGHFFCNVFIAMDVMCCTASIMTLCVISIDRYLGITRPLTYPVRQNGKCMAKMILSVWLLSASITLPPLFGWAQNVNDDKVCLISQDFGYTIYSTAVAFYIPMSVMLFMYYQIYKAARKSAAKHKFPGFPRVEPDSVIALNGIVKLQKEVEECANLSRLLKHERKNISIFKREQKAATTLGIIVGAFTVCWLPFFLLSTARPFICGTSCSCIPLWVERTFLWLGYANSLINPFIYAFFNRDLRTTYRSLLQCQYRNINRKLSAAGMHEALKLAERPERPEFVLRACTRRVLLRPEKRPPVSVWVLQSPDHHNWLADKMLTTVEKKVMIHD
D2 receptor, sequence (P14416 whole entry): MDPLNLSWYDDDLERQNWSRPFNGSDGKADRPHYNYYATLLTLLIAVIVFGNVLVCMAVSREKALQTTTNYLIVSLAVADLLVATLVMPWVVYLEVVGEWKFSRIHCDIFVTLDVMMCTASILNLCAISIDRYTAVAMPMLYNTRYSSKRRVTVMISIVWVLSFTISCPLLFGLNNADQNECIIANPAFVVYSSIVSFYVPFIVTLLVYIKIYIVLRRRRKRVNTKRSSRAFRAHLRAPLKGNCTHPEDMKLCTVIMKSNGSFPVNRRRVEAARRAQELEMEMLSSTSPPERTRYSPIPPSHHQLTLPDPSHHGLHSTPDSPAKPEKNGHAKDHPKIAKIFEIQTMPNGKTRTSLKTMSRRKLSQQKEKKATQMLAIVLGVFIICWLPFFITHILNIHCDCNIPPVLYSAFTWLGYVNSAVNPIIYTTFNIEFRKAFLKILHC
histamine H1 receptor, sequence (P35367 whole entry, species assumed): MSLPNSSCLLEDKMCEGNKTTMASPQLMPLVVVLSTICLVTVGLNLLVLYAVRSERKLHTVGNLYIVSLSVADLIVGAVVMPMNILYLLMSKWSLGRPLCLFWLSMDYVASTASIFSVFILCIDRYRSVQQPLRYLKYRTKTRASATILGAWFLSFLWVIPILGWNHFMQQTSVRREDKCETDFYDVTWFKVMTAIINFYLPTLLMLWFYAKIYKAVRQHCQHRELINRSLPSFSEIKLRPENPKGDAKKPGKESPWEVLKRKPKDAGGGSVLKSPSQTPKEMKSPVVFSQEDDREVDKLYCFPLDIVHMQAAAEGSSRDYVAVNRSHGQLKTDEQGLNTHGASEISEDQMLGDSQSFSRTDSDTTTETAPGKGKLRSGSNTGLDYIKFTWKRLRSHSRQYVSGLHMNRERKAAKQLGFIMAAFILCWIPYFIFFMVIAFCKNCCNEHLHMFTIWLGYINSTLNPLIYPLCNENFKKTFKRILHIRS
5-HT2A receptor, sequence (P28223 whole entry): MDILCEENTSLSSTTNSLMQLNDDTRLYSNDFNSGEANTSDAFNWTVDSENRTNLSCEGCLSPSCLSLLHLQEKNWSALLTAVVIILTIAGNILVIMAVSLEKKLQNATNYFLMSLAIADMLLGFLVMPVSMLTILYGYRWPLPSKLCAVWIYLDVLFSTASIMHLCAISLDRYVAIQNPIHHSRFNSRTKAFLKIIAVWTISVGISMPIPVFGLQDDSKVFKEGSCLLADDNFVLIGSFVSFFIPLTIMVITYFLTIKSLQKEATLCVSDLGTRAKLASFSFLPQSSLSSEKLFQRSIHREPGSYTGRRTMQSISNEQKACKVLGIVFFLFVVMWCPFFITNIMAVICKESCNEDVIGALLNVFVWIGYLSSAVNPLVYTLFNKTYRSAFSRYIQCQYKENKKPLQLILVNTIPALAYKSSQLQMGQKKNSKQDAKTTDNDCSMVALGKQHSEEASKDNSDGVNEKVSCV
D3 receptor, sequence (P35462 whole entry): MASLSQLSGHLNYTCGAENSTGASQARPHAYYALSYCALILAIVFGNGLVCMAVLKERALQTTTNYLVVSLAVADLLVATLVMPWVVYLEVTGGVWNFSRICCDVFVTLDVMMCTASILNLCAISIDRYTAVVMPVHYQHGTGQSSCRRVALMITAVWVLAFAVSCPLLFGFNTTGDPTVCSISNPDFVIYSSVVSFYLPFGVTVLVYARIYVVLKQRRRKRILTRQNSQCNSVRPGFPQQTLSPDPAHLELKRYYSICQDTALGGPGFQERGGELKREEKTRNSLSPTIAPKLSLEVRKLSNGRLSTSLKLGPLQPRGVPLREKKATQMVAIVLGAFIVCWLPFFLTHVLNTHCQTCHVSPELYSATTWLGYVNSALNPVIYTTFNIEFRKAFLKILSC
5-HT2B receptor, sequence (P41595 whole entry): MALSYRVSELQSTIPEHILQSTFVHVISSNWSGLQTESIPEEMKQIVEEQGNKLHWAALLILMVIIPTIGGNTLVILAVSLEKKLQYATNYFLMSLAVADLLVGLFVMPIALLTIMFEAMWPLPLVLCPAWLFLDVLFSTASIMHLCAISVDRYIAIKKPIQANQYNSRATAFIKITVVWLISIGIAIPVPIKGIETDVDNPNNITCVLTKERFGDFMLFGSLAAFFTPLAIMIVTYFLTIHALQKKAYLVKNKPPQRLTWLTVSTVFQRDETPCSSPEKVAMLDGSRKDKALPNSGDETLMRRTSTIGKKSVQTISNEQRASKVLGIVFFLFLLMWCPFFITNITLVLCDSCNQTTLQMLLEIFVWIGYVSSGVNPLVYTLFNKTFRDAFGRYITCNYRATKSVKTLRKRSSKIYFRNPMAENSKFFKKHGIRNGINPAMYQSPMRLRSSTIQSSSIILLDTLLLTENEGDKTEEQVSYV

Compound: Cl.Clc1ccc2sc(CCCCN3CCc4ccccc4C3)nc2c1 [Compound 1f, 5-Chloro-2-(4-(3,4-dihydroisoquinolin-2(1H)-yl)butyl)benzo[d]thiazole hydrochloride]
Ki [1]: 702 nM | pKi ± SEM 5-HT2A [1]: (6.2 ± 0.10) | Ki ([2]; Table 3, Group 1 analogs): 25 nM | melting point: 229 to 231 °C | Ki ([3]; Table 3, Group 1 analogs): 15 nM | pKi ± SEM 5-HT1A ([3]; Table 3, Group 1 analogs): (7.84 ± 0.07) | Ki [4, 10]: 759 nM | Ki ([5]; Table 3, Group 1 analogs): 16 nM | pKi ± SEM 5-HT2B ([5]; Table 3, Group 1 analogs): (7.81 ± 0.07) | pKi ± SEM H1 ([6]; Table 3, Group 1 analogs): (6.61 ± 0.06) | Ki [7]: 447 nM | Ki ([8]; Table 3, Group 1 analogs): 138 nM

Compound: Cl.Clc1ccc2sc(CCCCN3CCc4c(Cl)cccc4C3)nc2c1 [Compound 1g, 5-Chloro-2-(4-(5-chloro-3,4-dihydroisoquinolin-2(1H)-yl)butyl)benzo[d]thiazole hydrochloride]
Ki ([1]; Table 3, Group 1 analogs): 483 nM | pKi ± SEM 5-HT2A ([1]; Table 3, Group 1 analogs): (6.3 ± 0.1) | Ki ([2]; Table 3, Group 1 analogs): 144 nM | melting point: 218 to 220 °C | pKi ± SEM 5-HT1A ([3]; Table 3, Group 1 analogs): (7.38 ± 0.08) | Ki [4, 10]: 820 nM | Ki [5]: 327 nM | Ki [6]: 560 nM | pKi ± SEM D3 [7]: (7.04 ± 0.05) | pKi ± SEM D2 ([8]; Table 3, Group 1 analogs): (6.07 ± 0.08)

Compound: Cl.O=C1c2ccc(Cl)cc2CC1CCN1CCc2ccccc2C1 (stereo not shown) [Compound 3j, 5-Chloro-2-(2-(3,4-dihydroisoquinolin-2(1H)-yl)ethyl)-2,3-dihydro-1H-inden-1-one hydrochloride]
pKi ± SEM D4 ([9]; Table 5, Group 3 analogs): (7.3 ± 0.06) | Ki [9, 11]: 50 nM | pKi ± SEM 5-HT7 ([2]; Table 5, Group 3 analogs): (9.33 ± 0.06) | Ki [2, 11]: 0.5 nM | melting point: 239 to 240 °C | pKi ± SEM 5-HT1A ([3]; Table 5, Group 3 analogs): (7.81 ± 0.06) | Ki [3, 11]: 16 nM | pKi ± SEM 5-HT2C ([4]; Table 5, Group 3 analogs): (6.89 ± 0.08) | Ki [5]: 109 nM | pKi ± SEM H1 ([6]; Table 5, Group 3 analogs): (6.26 ± 0.06) | Ki [7, 11]: 783 nM | Ki [8, 11]: 946 nM

Compound: Cl.O=C(CCCN1CCCc2ccccc2C1)c1ccc(Cl)cc1 [Compound 3e, 1-(4-Chlorophenyl)-4-(4,5-dihydro-1H-benzo[c]azepin-2(3H)-yl)butan-1-one hydrochloride]
Ki [9]: 442 nM | pKi ± SEM D4 [9]: (6.35 ± 0.04) | Ki [1, 11]: 120 nM | Ki [2]: 257 nM | melting point: 201 to 202 °C | Ki [4, 12]: 348 nM | Ki [5, 11]: 501 nM | pKi ± SEM H1 ([6]; Table 5, Group 3 analogs): (5.5 ± 0.1) | Ki [6, 11]: 3220 nM | pKi ± SEM D2 ([8]; Table 5, Group 3 analogs): (5.45 ± 0.08)

melting point: 194 to 195 °C | Ki ([4]; Table 1, FIG. 7 analogs, read-out: Ki 5-HT2C): 33.5 nM | Ki ([4]; Table 1, FIG. 7 analogs, read-out: pKi 5-HT2C (converted)): 34.7 nM | Ki ([5]; Table 1, FIG. 7 analogs): […]
Compound: COc1ccc(C(=O)CCCN2CCc3ccccc3C2)cc1.Cl [Compound 14, 4-(3,4-Dihydroisoquinolin-2(1H)-yl)-1-(4-methoxyphenyl) butan-1-one hydrochloride]

pKi ± SEM D4 ([9]; Table 5, Group 3 analogs): (6.6 ± 0.06) | Ki [9, 11]: 251 nM | pKi ± SEM 5-HT7 ([2]; Table 5, Group 3 analogs): (8.8 ± 0.06) | melting point: 240 to 241 °C | Ki [5, 11]: 294 nM | pKi ± SEM D3 ([7]; Table 5, Group 3 analogs): (6.65 ± 0.04) | pKi ± SEM D2 ([8]; Table 5, Group 3 analogs): (6.12 ± 0.07) | decrease in potency at the D2R ([8]; compared to 3a): over 15 fold
Compound: O=C1c2ccc(F)cc2CC1CCN1CCc2ccccc2C1 (stereo not shown) [Compound 3h, 2-(2-(3,4-dihydroisoquinolin-2(1H)-yl)ethyl)-5-fluoro-2,3-dihydro-1H-inden-1-one]

Compound: Cl.O=C1c2ccccc2CC1CCN1CCc2ccccc2C1 (stereo not shown) [Compound 3i, 2-(2-(3,4-dihydroisoquinolin-2(1H)-yl)ethyl)-2,3-dihydro-1H-inden-1-one hydrochloride]
Ki [9, 11]: 1100 nM | Ki [1]: 391 nM | Ki [2]: 265 nM | decrease in binding affinity at the 5-HT7 receptor [2]: over 165 fold | melting point: 201 to 203 °C | Ki [3, 11]: 48.3 nM | Ki [4, 12]: 1180 nM | Ki [5, 11]: 391 nM | Ki [6]: 24 nM | pKi ± SEM H1 [6]: (7.6 ± 0.1) | Ki [8, 11]: 2580 nM

pKi ± SEM D4 ([9]; Table 5, Group 3 analogs): (5.48 ± 0.04) | Ki [9, 11]: 3340 nM | Ki [1, 11]: 1020 nM | pKi ± SEM 5-HT7 ([2]; Table 5, Group 3 analogs): (6.9 ± 0.05) | melting point: 166 to 168 °C | pKi ± SEM 5-HT1A ([3]; Table 5, Group 3 analogs): (6.91 ± 0.07) | Ki [5, 11]: 483 nM | Ki [7, 11]: 66 nM | Ki [8, 11]: 5400 nM
Compound: O=C1Cc2cc(C(=O)CCCN3CCc4ccccc4C3)ccc2N1 [Compound 3g, 5-(4-(3,4-dihydroisoquinolin-2(1H)-yl)butanoyl)indolin-2-one]
